For test [1], the target named is DP4 (HLA-DPA1*01:03/DPB1*04:01), DP4.1 (Homo sapiens, UniProt P04440+P20036). Description: Fluorescence polarization competition binding assay, DP4.1. The note with it: FP competition; Alexa488 oxytocinase probe 25 nM; DP4.1-Clip 250 nM; HLA-DM 500 nM; 37 °C, 24 h. On the technique in general: In fluorescence polarisation assays a small probe gives low polarisation when free and higher when bound to something large.

In test [2] the target is DRB1*15:01 (DR2b) (Homo sapiens, UniProt P01903+P01911). Nature of the test: Fluorescence polarization competition binding assay, DR2b. The note with it: FP competition; Alexa488 MBP probe 25 nM; DR2b-CLIP 500 nM; HLA-DM 500 nM; 37 °C, 24 h.
Test [3] has as its target DRB5*01:01 (DR2a) (Homo sapiens, UniProt P01903+Q30154). Nature of the test: Fluorescence polarization competition binding assay, DR2a. The note with it: FP competition; Alexa488 influenza hemagglutinin probe 25 nM; DR2a-CLIP 250 nM; HLA-DM 500 nM; 37 °C, 24 h.
Test [4] has as its system relevant alleles (DP4.1, DR2b, DR2a). Nature of the test: Fluorescence polarization competition binding assay, relevant alleles. Particulars: six representative HLA-DR peptides. Further details: species or system human.
Test [5] relates to peptide-expanded T cells from partially HLA-matched donors. Nature of the test: IFN-γ ELISpot, single-peptide in vitro expanded T cells with single allele APC. The note with it: for T cell recognition, IFN-γ ELISpot: expanded T cells from HLA-matched donors; for minimal activating peptide concentration: dose range 10 – 10^−7 μg/mL. In kind it is cell-based, human.
In test [6] the test system is single-peptide-expanded T cell lines. Description: Intracellular cytokine staining (ICS) of single-peptide-expanded T cell lines. Particulars: single allele APC, 1 μg/mL. Type of test: cell-based, human.
Test [7] has as its system T cell lines expanded in vitro with OC43 or SARS-CoV-2 peptides. Description: IFN-γ ELISpot cross-reactivity between OC43 peptides and homologs of other coronaviruses. The note with it: Table 1.
Test [8] deals with soluble DP4 (HLA-DPA1*01:03/DPB1*04:01) (human).
Test [9] deals with soluble recombinant HLA-DR DRB1*15:01 (DR2b) (human). Description: fluorescence polarisation.
Test [10] concerns the target soluble recombinant HLA-DR DRB5*01:01 (DR2a) (human). Description: fluorescence polarisation.
Test [11] has as its target soluble recombinant HLA-DR DRB1*15:01 (DR2b) (human).
For test [12], the target named is soluble recombinant HLA-DR DRB5*01:01 (DR2a) (human).

Where two headings read alike, the source gives them in different places. Where only a bound is given, the exact number is not on record here.

The source of these data is doi:10.1101/2022.12.01.518643 (bioRxiv, 2022).

As for “APYGLYFIHFSYVPTK [Peptide P6, OC43 spike 1140–1155, naturally processed peptide eluted from HLA-DP]”, the half-inhibitory concentration (IC50) – broadly, the concentration needed to halve the response being measured – in test [1] is ≥ 10000 nM. “DFINGIFAKVKNTKVIK [Peptide P12, OC43 spike 98–114, naturally processed peptide eluted from HLA-DR]”: the figures for the 50% inhibitory concentration (IC50) in test [2] and in test [3] were ≥ 1000 nM and < 1000 nM, respectively. Also, the “binding to DR2a / DR2b allotypes” value in test [4] is listed as “bound exclusively to DR2a”. On to “EGQQIIFYEGVNFTP [Peptide P8, OC43 hemagglutinin esterase 93–107, naturally processed peptide eluted from HLA-DR]”, for which, in test [5], the “T cell recognition, IFN-γ ELISpot” value was “not recognized”. In addition, the “IFN-γ response in ICS” value in test [6] was “did not produce a response”.

For “GAFFFGSRLELAKVQN [Peptide P2, OC43 nucleoprotein 321–336, naturally processed peptide eluted from HLA-DP]”, the IC50 in test [1] is ≥ 10000 nM. Besides, in test [5] (expanded cells from donor 61), the “minimal activating peptide concentration” value is on record as 10^−6 μg/mL.

Consider “ITTGYRFTNFEPFT [Peptide P5, OC43 spike 760–773, naturally processed peptide eluted from HLA-DP]”, for which the 50% inhibitory concentration (IC50) in test [1] was < 1000 nM. With “LFYTQVYKNMAVYRS [Peptide P9, OC43 hemagglutinin esterase 128–142, naturally processed peptide eluted from HLA-DR]”, the half-inhibitory concentration (IC50) in test [3] is < 1000 nM. The “minimal activating peptide concentration” value in test [5] (donor 40) is 1 µg/mL. In test [4], the “binding to DR2a / DR2b allotypes” value was “both allotypes”. Take “LSDFINGIFAKVKNTK [Peptide P3, OC43 spike 97–111, naturally processed peptide eluted from HLA-DP]”: the “minimal activating peptide concentration” value in test [5] (expanded cells from donor 61) is listed as 10^−7 μg/mL. As to LTALNAYVSQQLSDS [Peptide P11], the “minimal activating peptide concentration” value in test [5] (donor 07) turned out to be 1 µg/mL. For the same substance, the SARS-CoV-2 cross-reactivity result in test [7] was “yes”. For the substance “NRGRQFYEFYNDVKPP [Peptide P14, OC43 envelope 62–78, naturally processed peptide eluted from HLA-DP]”, the “T cell recognition, IFN-γ ELISpot” value in test [5] is on record as “not recognized”. The “IFN-γ response in ICS” value in [6] was “did not produce a response”.

As to “OC43 envelope protein peptide 62–78 (P14)”, the IC50 in [8] was < 10000 nM. Regarding “OC43 hemagglutinin esterase peptide 93–107 (P8)”, the IC50 in test [9] was < 1000 nM. Turning to “OC43 hemagglutinin esterase peptide 128–142 (P9)”, the IC50 in test [9] and in [10] was < 1000 nM in each case. As for OC43 nucleoprotein peptide 54–68 (P10), the 50% inhibitory concentration (IC50) in [11] was < 1000 nM. As to OC43 nucleoprotein peptide 321–336 (P2), the 50% inhibitory concentration (IC50) in test [8] is > 10000 nM. Take OC43 spike peptide 97–111 (P3): the concentration for half-maximal inhibition (IC50) in test [8] was < 10000 nM. As for OC43 spike peptide 98–114 (P12), the figures for the concentration for half-maximal inhibition (IC50) in [11] and in test [12] were > 1000 nM and < 1000 nM, respectively. OC43 spike peptide 271–286 (P13): in test [11], the IC50 was < 1000 nM.

Regarding OC43 spike peptide 760–773 (P5), the IC50 in test [8] was < 1000 nM. Take OC43 spike peptide 903–917 (P4): the IC50 in [8] was < 10000 nM.

As to OC43 spike peptide 1085–1099 (P11), in test [11], the IC50 was < 1000 nM. As for OC43 spike peptide 1140–1155 (P6), the IC50 in test [8] was > 10000 nM. The same measure, in the same setting: as for OC43 spike peptide 1147–1164 (P7), the figure is < 10000 nM. In the case of “PSGGNVVPYYSWFSG [Peptide P10, OC43 nucleoprotein 54–68, naturally processed peptide eluted from HLA-DR]”, the “minimal activating peptide concentration” value in test [5] (donors 18, 22, and 40) is 10^−5 μg/mL. Besides, in test [5] (responding CD4 T cells, discussion), the minimal peptide concentrations result is “about 10 pg/mL”. In the case of “SRQYLLAFNQDGIIFN [Peptide P13, OC43 spike 271–286, naturally processed peptide eluted from HLA-DR]”, the IC50 in test [2] was < 1000 nM. Further, the “T cell recognition, IFN-γ ELISpot” value in test [5] is recorded as “not recognized”. Further, the “IFN-γ response in ICS” value in test [6] is reported as “did not produce a response”.

Turning to “YLAISNELLLTVPTK [Peptide P1, OC43 hemagglutinin esterase 259–273, naturally processed peptide eluted from HLA-DP]”, the IC50 in test [1] was < 1000 nM.
